Like-named read-outs stand apart in the source and are kept apart here.
Assays:
Cytotoxicity MTT assay = type: cell-based; settings: human, HepG2 cells (hepatocellular carcinoma cell line), HepG2, MTT, mean ± SEM, n = 3
Protocol: (§1) MTT assay was used to estimate cell viability potential for 24 h using hepatocellular carcinoma cell line (HepG2) as previously reported. Calculation of the relative cell viability percentage was performed following the equation: % Relative cell viability = (Absorbance of treated samples/Absorbance of untreated sample) × 100.

[1] = tested on: healthy adult Sprague–Dawley male rats; test: In vivo toxicity study, 6 weeks oral daily; parameters: species or system rat; settings: plasma, oral daily 6 weeks, dose equimolar to celecoxib 20 mg/kg; mean ± SEM, n = 6
Protocol: (§2) Ninety-eight healthy adult Sprague–Dawley male rats with an average weight of 150 ± 20 g were obtained from the animal facility at the Institute of Graduate Studies and Research, Alexandria University, Egypt. Animals were provided with a balanced commercial diet ad libitum and adapted for two weeks prior to the experiment. All animals were sacrificed under IP thiopental anesthesia (50 mg/kg) 48 h after the last treatment.
Blood samples were collected using cardiac puncture in Li-heparin tubes and centrifuged at 2000× g for 10 min to obtain the plasma. Then, the determination of hepatic biomarkers and renal profile was performed according to kits purchased from Roche Diagnostics, USA, using a Roche/Hitachi analyzer (cobas c 311, cobas c 501/502). […]

induced liver fibrosis [2] = settings: cited from earlier work
induced liver fibrosis [3] = settings: injected subcutaneously 3.6 µL/day, mice models; cited from earlier work
COX-1 = target: T1, COX-1 (Ovis aries, UniProt P05979); test: In vitro COX-1 inhibition assay (Cayman colorimetric COX (ovine) inhibitor screening kit); type: biochemical; settings: mean ± SEM, n = 3
T1 construct: purchased Cayman Chemicals, Ann Arbor, MI, USA 560131
T1 sequence (P05979 25-600): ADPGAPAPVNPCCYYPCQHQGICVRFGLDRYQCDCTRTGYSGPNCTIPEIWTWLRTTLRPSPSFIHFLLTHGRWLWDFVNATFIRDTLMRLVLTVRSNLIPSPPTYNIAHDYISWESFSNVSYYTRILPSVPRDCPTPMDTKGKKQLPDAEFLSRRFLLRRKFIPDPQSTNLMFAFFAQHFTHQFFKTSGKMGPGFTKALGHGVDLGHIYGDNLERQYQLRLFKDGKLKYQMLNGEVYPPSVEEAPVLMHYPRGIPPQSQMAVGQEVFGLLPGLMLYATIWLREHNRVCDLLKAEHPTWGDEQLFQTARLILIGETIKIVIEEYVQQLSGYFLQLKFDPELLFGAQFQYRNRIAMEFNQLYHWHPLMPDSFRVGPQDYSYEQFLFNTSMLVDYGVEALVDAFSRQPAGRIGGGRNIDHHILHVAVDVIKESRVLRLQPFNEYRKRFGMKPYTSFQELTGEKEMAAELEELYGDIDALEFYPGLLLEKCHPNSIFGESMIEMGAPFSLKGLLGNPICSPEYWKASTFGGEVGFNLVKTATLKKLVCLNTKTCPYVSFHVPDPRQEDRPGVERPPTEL

[4] = tested on: hepatocellular carcinoma cell line (HepG2); test: Cytotoxicity MTT assay; type: cell-based; settings: human, 24 h
Protocol: as §1

[5] = tested on: CCl4-induced liver fibrosis in male Sprague–Dawley rats; test: Therapeutic model treated after induction of CCl4 liver fibrosis; type: in vivo, rat; settings: for redox status (MDA, GSH, SOD in liver homogenate): oral daily weeks 7-12 after CCl4, compared to Clx
Protocol: as §2
Blood samples were collected using cardiac puncture in Li-heparin tubes and centrifuged at 2000× g for 10 min to obtain the plasma. Then, the determination of hepatic biomarkers and renal profile was performed according to kits purchased from Roche Diagnostics, USA, using a Roche/Hitachi analyzer (cobas c 311, cobas c 501/502).
Rats were sacrificed by exsanguination following blood sample collection. The livers were excised, rinsed with cold saline, and dried on filter paper. A portion of each excised liver was put in 10% formalin solution, and then embedded in paraffin and sliced into 4–5 µm sections for histological evaluation. Another part of each liver was snap frozen and stored at −80 °C for later analyses of markers. The remaining tissue was stored in RNAlater solution (Qiagen, Germany, Mat. No. 1018087, lot no. 148052467) for qRT-PCR.
Sections from formalin-fixed paraffin-embedded (FFPE) liver tissues were stained with hematoxylin and eosin and Masson trichrome stain to evaluate liver necrosis and fibrosis. The scores of liver fibrosis degree were evaluated according to a 4-tiered scoring system following the criteria: score 0 = absent fibrosis where scanty fibrous tissue is seen only in portal tracts, score 1 = minimal fibrosis (expanded portal tracts with short fibrous septea may be extending from portal tracts), score 2 = mild fibrosis (long fibrous septea is extending from portal tracts with occasional bridging to other portal tracts or to central veins), score 3 = moderate fibrosis (frequent portal to portal or to central vein bridging with infrequent pseudolobule formation), and score 4 = severe fibrosis (nodular liver with evident pseudolobule formation). For collagen morphological quantification, multiple random pictures of the trichrome-stained section were taken using a microscope-adopted camera at ×400 power. The collagen-positive area stained in blue was evaluated using ImageJ software and then calculated as a percentage of the total field area. At least eight fields were assessed and the mean value was then calculated.
Four-micron sections were cut and mounted on positively charged slides. They were stained with smooth muscle actin (SMA) monoclonal primary antibody (Dako, Denmark; CodeIR611, lot no. 41247585) using Dako auto Stainer (autostainer Link 48). A positive control (leiomyoma) was used in each run. Immune-stained slides were assessed, and ten high power fields of each section were photographed using a Leica camera. Photos were analyzed using ImageJ software to record the immune-positive area (seen as brown staining) in each photo. Then, the positively stained area percentage was calculated as a mean of the 10 examined photos for each rat.
Protein content determination was performed according to Bradford using bovine serum albumin as a standard. A volume of 5 μL of each sample and standard was first added to each well then 250 μL of Ready-To-Use Coomassie Blue G-250 Based Reagent (Thermo Scientific, Waltham, MA, USA; Prod no. 23200, lot no. UE285518) was added. The microplate was put on the shaker for 30 s and then incubated for 10 min at RT. Absorbance was read at […] using a microplate reader.
The malondialdehyde (MDA) level was estimated using the thiobarbituric acid method as previously described. Liver glutathione was estimated using a colorimetric kit (Biodiagnostics, Egypt; catalog no. GR 25 11) according to the method of Beutler et al.. […]

[6] = liver tissue homogenate, after CCl4

Structure (SMILES)	IC50 at 24 h (Cytotoxicity MTT assay) [µM]	ALP [1] [U/L]	ALT [1] [U/L]	AST [1] [U/L]	Albumin [1] [g/dL]	Cholesterol [1] [mg/dL]	Creatinine [1] [mg/dL]	Total Bilirubin [1] [mg/dL]	Triglycerides [1] [mg/dL]	IC50 (COX-1) [µM]	Safety Index (SI) [4]	redox status (MDA, GSH, SOD in liver homogenate) [5]	other results
Cc1ccc(-c2cc(C(F)(F)F)nn2-c2ccc(S(N)(=O)=O)cc2)cc1 [Celecoxib, celecoxib, reference compound]	144.6 ± 1.08	138.66 ± 13.40	42 ± 3.33	147.5 ± 18.65	3.73 ± 0.06	52.5 ± 2.21	0.35 ± 0.01	0.084 ± 0.006	53 ± 7.11				effect on induced liver fibrosis (induced liver fibrosis [2]; 15 mg/kg/day orally, rat models): no effect; effect on induced liver fibrosis (induced liver fibrosis [2]; 20 mg/kg/day orally): potentiality in the attenuation of induced liver fibrosis; effect on induced liver fibrosis (induced liver fibrosis [3]): no effect
COc1ccc(/C=N/Nc2ncnc3c2cnn3-c2ccccc2)cc1 [Compound D1]	370.7 ± 0.089	159.5 ± 7.48	49.66 ± 4.99	139.5 ± 7.78	3.9 ± 0.12	71.66 ± 7	0.36 ± 0.03	0.073 ± 0.004	67 ± 5.42	7.5 ± 0.09	2745.9	no significance difference to Clx treatment	
COc1ccc(/C=N/Nc2ncnc3c2cnn3-c2ccccc2)cc1OC [Compound D2]	344.95 ± 0.3	154.16 ± 10.92	39.66 ± 2.13		3.78 ± 0.12	67 ± 6.47	0.37 ± 0.01	0.071 ± 0.01	61.83 ± 7.11	8.5 ± 0.04	3349.0	best enhancement	hepatic mRNA expression of MMP-9 ([5]; after CCl4 and treatment, vs model and control): more significant reduction, reaching a low MMP-9 level near that of the control group; reduction of TGF-β compared to celecoxib ([5]; hepatic mRNA, after CCl4 and treatment): more significant than celecoxib; proinflammatory and profibrogenic cytokines (TNF-α protein, TGF-β and IL-6 gene expression) ([5]; liver, after CCl4 and treatment): decreased considerably reaching the control level; severity of fibrosis (architecture, fibrotic score, collagen- and α-SMA-positive areas, α-SMA and COL1A1 mRNA) ([5]; oral daily weeks 7-12 after 6 weeks CCl4, vs model and Clx group): best effect; restoration of increased plasma ALT and AST ([5]; plasma, after CCl4 and treatment): more significant
COc1cc(/C=N/Nc2ncnc3c2cnn3-c2ccccc2)cc(OC)c1OC [Compound D3]	356.5 ± 2.9	123.16 ± 4.12	37.83 ± 2.45	147.33 ± 9.81	3.86 ± 0.12	62.33 ± 1.68	0.42 ± 0.02	0.076 ± 0.006	64 ± 8.01	11.5 ± 0.05	4042.7		MDA level compared to Clx [5, 6]: significantly better that Clx; SOD compared to Clx [5, 6]: equal to it; reduced GSH compared to Clx [5, 6]: worse

Reference: publication PMC10045301, “The Role of Pyrazolo[3,4-d]pyrimidine-Based Kinase Inhibitors in The Attenuation of CCl4-Induced Liver Fibrosis in Rats” (Antioxidants, 2023)
